Results from patent US20140249076A1, “AMYLIN-CALCITONIN CHIMERIC PEPTIDES CONJUGATED TO DURATION ENHANCING MOIETIES” (AMYLIN PHARMACEUTICALS, LLC, priority 2011, published 2014).
Numbered stars: 1 amine (or outer) side, 2 acyl side, 3 side chain; on linkers, the order of the positions; unused ones are H or OH. Bridge positions count the residues as written; N and C are the ends. Side chains are listed from the residue outwards. Peptide text beside a SMILES is read from it. * marks the point of attachment. γGlu = O=C(O)[C@H](CCC(=O)[*:2])N[*:1]; Palmitoyl = CCCCCCCCCCCCCCCC(=O)*

Legend:
[1] = test system: male Harlan Sprague-Dawley rats; assay: Stress-induced hyperthermia (SIH) assay; assay type: in vivo, rat; settings: 0.1 mg/kg IP, 18 hr pretreatment
Description: Stress-induced hyperthermia (SIH). Body temperature and emotional state are closely related in humans. Without wishing to be bound by any theory, it is believed that stress-induced hyperthermia (SIH) in rodents has predictive validity for certain human anxiety/stress disorders. The SIH assay assesses the effect of test agents (e.g, anxiolytics) on core body temperature following restraint stress. See, for example, Zethof et al., 1994, Physiol. Behay. 55:109-115. Anxiolytics typically blunt the increase in body temperature, or hyperthermic response, following stress exposure. […] Test animals can then be patiented to two sequential rectal temperature measurements at a measured time interval (e.g, 30 min). The difference between the second temperature reading and the first temperature reading (ΔT) is the stress-induced hyperthermic response.
As described above, it is believed that stress-induced hyperthermia (SIH) in rodents (e.g., rats) has predictive validity for certain human anxiety/stress disorders. […] Temperature readings were obtained remotely at the time of injection and at t=0 and t=30 minutes. The SIH response was defined as the change from t=30 back to t=0 minutes, while effects on basal temperature were calculated as the change from t=0 back to the time of injection.

[2] = test system: mice; assay: Forced swim test (FST); assay type: in vivo, mouse; settings: qualitative result; 0.03 mg/kg dosing, as in Example 8
Description: The forced swim test (FST) is a commonly used paradigm to evaluate antidepressant activity of drugs. The FST is based on measurement of the animal's floating time in a tank filled with water. When rats or mice are forced to swim in a deep cylinder with tepid water they become nearly immobile and cease trying to escape. Without wishing to be bound by any theory, it is believe that this characteristic immobile posture reflects a depressive-like state which is readily influenced by a wide variety of antidepressants. See, e.g., Hedou et al., 2001, Pharmacol, Biochem. Behay. 70:65-76; Chaki et al., 2003, J. Pharmacol. Exp. Ther. 304:818-826; Porsolt et al., 1977, Nature 266:730-732. Antidepressants decrease the immobility time in the FST. Vehicle or test compound can be delivered continuously for two weeks to mice by subcutaneously implanted osmotic pumps prior to the FST. Indeed, any route of administration (e.g., intraperitoneal, subcutaneous, oral and the like) is available. Mice can be placed in the water tank for assessment of climbing, swimming, and immobility over a defined trial session, typically 6 minutes. Test session parameters for mice and rats are typically different, as known in the art.
The forced swim test (FST) is a commonly used paradigm to evaluate antidepressant activity of drugs. […] Specifically, vehicle or test compound was delivered continuously for two weeks to mice by subcutaneously implanted osmotic pumps prior to the FST assay, by methods well known in the art. On day one, the patients were introduced into the tank for a 15 minute pre-swim session. On day two, the patients were placed back into the water tank for assessment of climbing, swimming, and immobility over a 6 minute trial session. The rate of compound infusion was 0.03 mg/kg/day.

[3] = target: T1, Amylin receptor (Rattus norvegicus, UniProt P32214); assay: Amylin receptor binding assay (125I-rat amylin, RNA membranes); settings: Table 8
T1 construct: from tissue; read as rat nucleus accumbens membranes
T1 sequence (P32214 25-516): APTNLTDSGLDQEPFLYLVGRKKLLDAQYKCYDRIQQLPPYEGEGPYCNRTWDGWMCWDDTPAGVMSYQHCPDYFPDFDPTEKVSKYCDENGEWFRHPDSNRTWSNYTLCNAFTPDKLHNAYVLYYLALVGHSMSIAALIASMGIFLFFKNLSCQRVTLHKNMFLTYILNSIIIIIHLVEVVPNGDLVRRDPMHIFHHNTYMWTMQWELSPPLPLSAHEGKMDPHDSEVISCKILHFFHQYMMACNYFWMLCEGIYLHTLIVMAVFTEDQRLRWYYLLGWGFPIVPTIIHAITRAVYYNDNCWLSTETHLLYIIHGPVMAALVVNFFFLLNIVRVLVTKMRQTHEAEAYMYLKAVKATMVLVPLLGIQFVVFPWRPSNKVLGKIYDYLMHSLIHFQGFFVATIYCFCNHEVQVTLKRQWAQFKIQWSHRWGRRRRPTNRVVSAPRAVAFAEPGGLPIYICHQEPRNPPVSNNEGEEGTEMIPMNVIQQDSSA
T1 sequence (Q9JJ74 27-148 partner): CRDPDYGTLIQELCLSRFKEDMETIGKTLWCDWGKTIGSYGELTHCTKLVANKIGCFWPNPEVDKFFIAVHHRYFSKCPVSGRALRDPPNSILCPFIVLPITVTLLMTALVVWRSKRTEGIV
Protocol: (§1) Amylin receptor binding assay. RNA membranes can be incubated with approximately 20 μM (final concentration) of ^125I-rat amylin (Bolton-Hunter labeled, PerkinElmer, Waltham, Mass.) and increasing concentrations of test compound for 1 hour at ambient temperature in, for example, 96-well polystyrene plates. […] Dried glass fiber plates can be combined with scintillant and counted on a multi-well Perkin Elmer scintillation counter.
(§2) A variety of receptor binding and functional activity assays were conducted using the peptide conjugates described herein. Receptor binding activity can be expressed, for example in Table 6, as an IC50 value, calculated from the raw data using an iterative curve-fitting program using a 4-parameter logistic equation (PRISM®, GraphPAD Software, La Jolla, Calif.), as known in the art.
as §1, with “For the amylin” for “Amylin”, “assay,” for “assay.”, “were” for “can be”, “in” for “in, for example,”, “counter, as well known in the art.” for “counter.”

[4] = target: T2, Calcitonin receptor (Rattus norvegicus, UniProt P32214); assay: Calcitonin receptor binding assay (125I-human calcitonin, C1a-HEK cell membranes); settings: Table 8
T2 construct: expressed in transfected cells; host or cells: C1a-HEK cells (HEK cells stably expressing the receptor), membranes
T2 sequence (P32214 25-479 isoform P32214-2 limits assumed): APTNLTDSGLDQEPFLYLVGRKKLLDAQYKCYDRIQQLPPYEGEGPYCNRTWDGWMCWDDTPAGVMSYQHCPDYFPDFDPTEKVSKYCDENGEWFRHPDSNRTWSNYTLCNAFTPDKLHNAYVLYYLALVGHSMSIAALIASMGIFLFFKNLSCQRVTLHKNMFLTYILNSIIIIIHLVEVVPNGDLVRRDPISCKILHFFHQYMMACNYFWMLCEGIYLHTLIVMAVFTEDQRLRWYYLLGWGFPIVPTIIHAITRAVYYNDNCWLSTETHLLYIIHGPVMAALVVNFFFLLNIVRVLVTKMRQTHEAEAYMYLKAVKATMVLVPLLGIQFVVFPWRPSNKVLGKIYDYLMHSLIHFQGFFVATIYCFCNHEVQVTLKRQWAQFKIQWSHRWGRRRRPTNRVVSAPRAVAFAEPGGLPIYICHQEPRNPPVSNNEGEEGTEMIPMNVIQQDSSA
Protocol: as §1, with “Calcitonin” for “Amylin”, “C1a-HEK cell” for “RNA”, “[…]” for “20”, “^125I-human calcitonin (PerkinElmer,” for “^125I-rat amylin (Bolton-Hunter labeled, PerkinElmer,”, “multiwell” for “multi-well”
as §2
For the calcitonin receptor binding assay, C1a-HEK cell membranes were incubated with approximately […] (final concentration) of ^125I-human calcitonin (PerkinElmer, Waltham, Mass.) and increasing concentrations of test compound for 1 hour at ambient temperature in 96-well polystyrene plates. […] Dried glass fiber plates were combined with scintillant and counted on a multiwell Perkin Elmer scintillation counter.

| Compound | SIH response [1] | FST Assay, 0.03 mg/kg [2] | IC50 [3] [nM] | IC50 [4] [nM] |
| --- | --- | --- | --- | --- |
| CCCCCCCCCCCCCCCC(=O)N[C@@H](CCC(=O)NCCCC[C@H](NC(=O)[C@@H](NC(=O)[C@H](CCCNC(=N)N)NC(=O)[C@@H]1CCCN1C(=O)[C@H](Cc1ccc(O)cc1)NC(=O)[C@@H](NC(=O)[C@H](CCC(N)=O)NC(=O)[C@H](CC(C)C)NC(=O)[C@H](CCCNC(=N)N)NC(=O)[C@H](Cc1c[nH]cn1)NC(=O)[C@H](CC(C)C)NC(=O)[C@H](CCC(=O)O)NC(=O)[C@H](CCC(N)=O)NC(=O)[C@H](C)NC(=O)[C@H](CC(C)C)NC(=O)[C@H](CCCNC(=N)N)NC(=O)[C@H](CCC(N)=O)NC(=O)[C@H](CC(C)C)NC(=O)[C@H](C)NC(=O)[C@@H]1CSSC[C@H](NC(=O)[C@@H](N)CCCCN)C(=O)N[C@@H](CC(N)=O)C(=O)N[C@@H]([C@@H](C)O)C(=O)N[C@@H](C)C(=O)N[C@@H]([C@@H](C)O)C(=O)N1)[C@@H](C)O)[C@@H](C)O)C(=O)N[C@H](C(=O)NCC(=O)N[C@@H](CO)C(=O)N[C@@H](CC(N)=O)C(=O)N[C@H](C(=O)N[C@@H](Cc1ccc(O)cc1)C(N)=O)[C@@H](C)O)C(C)C)C(=O)O [Cmpd 189, [K^26ε-(γ-Glu(Nα-C16-Chain))]-Cmpd 17] (H-KCNTATCALQRLAQELHRLQTYPRTK([γGlu-Palmitoyl])VGSNTY-NH2; disulfide 2-7 (inferred); N-terminus assumed) | statistically insignificant reduction in SIH | Active |  |  |
| CC(C)C[C@H](NC(=O)[C@H](C)NC(=O)[C@@H]1CSSC[C@H](NC(=O)[C@@H](N)CCCCN)C(=O)N[C@@H](CC(N)=O)C(=O)N[C@@H]([C@@H](C)O)C(=O)N[C@@H](C)C(=O)N[C@@H]([C@@H](C)O)C(=O)N1)C(=O)N[C@@H](CCC(N)=O)C(=O)N[C@@H](CCCNC(=N)N)C(=O)N[C@@H](CC(C)C)C(=O)N[C@@H](C)C(=O)N[C@@H](CCC(N)=O)C(=O)N[C@@H](CCC(=O)O)C(=O)N[C@@H](CC(C)C)C(=O)N[C@@H](Cc1c[nH]cn1)C(=O)N[C@@H](CCCNC(=N)N)C(=O)N[C@@H](CC(C)C)C(=O)N[C@@H](CCC(N)=O)C(=O)N[C@H](C(=O)N[C@@H](Cc1ccc(O)cc1)C(=O)N1CCC[C@H]1C(=O)N[C@@H](CCCNC(=N)N)C(=O)N[C@H](C(=O)N[C@@H](CC(N)=O)C(=O)N[C@H](C(=O)NCC(=O)N[C@@H](CO)C(=O)N[C@@H](CC(N)=O)C(=O)N[C@H](C(=O)N[C@@H](Cc1ccc(O)cc1)C(N)=O)[C@@H](C)O)C(C)C)[C@@H](C)O)[C@@H](C)O [Cmpd 17] (H-KCNTATCALQRLAQELHRLQTYPRTNVGSNTY-NH2; disulfide 2-7; N-terminus assumed) |  | Inactive | 0.028 | 0.095 |
